The values below come from patent US10278971B2, “Fluorocyclopentenylcytosine methods of use” (Rexahn Pharmaceuticals, Inc., priority 2015, dated 2019).

Common to all, as to type: cell-based, human
The subject of one assay is A549. Put plainly: Cell cycle distribution and apoptosis by flow cytometry (PI, Annexin V). The procedure: (§1) The effect of RX-3117 on cell cycle regulation and cell death in human non-small cell lung cancer (NSCLC) cell lines A549 (adenocarcinoma), SW1573 (alveolar carcinoma) and SW1573/G- (SW1573 cell line resistant to gemcitabine) and H460 (large cell carcinoma) was assessed. The A549 and H460 cell lines were obtained from American Type Culture Collection (Manassas, Va., USA). The SW1573 cell line, obtained from Dr. Johan van Rijn (see Keiser et al., Cancer Research, 49:2988-2993 (1989)), also served as the parental cell line for SW1573/G-. A549, SW1573, and SW1573/G- and H460 were kept in exponential growth in T25 flasks (Greiner Bio-One GmbH, Frickenhausen, Germany) and cultured in Dulbecco's minimal essential medium (DMEM) or RPMI 1640 (A549) supplemented with 10% heat-inactivated fetal bovine serum (FBS) 1% streptomycin and penicillin 20 mM HEPES and maintained in 37° C. water saturated atmospheres of 5% CO2. For the cell cycle distribution, 1.5×10^5 cells were seeded in a T25 flask (Greiner Bio-One GmbH) and cultured for 72 hours after which 1 μM of RX-3117 was added and incubated for 24 hours. The cells were then harvested. After the treatment, the medium was collected in a 15 ml tube (Greiner Bio-One GmbH). The cells were washed with ice cold PBS and trypsinized (Lonza) at 37° C. The collected medium was used to inactivate trypsin of the corresponding sample and again collected in the 15 ml tube. The cells were centrifuged with the standard centrifuge program, 5 minutes at 4° C. and […]. The medium was removed, pellet washed with 1 ml PBS/0.01% BSA and centrifuged. After removal of the supernatant, the cells were fixed with 1 ml 70% ethanol and incubated at −20° C. for at least 24 hours. Subsequently, the cells were centrifuged, washed with 1 ml PBS/0.1% BSA and transferred to a FALCON FACS tube (BD, Franklin Lakes, N.J., USA). The cells were centrifuged, and the supernatant was removed followed by the addition of 0.5 μg propidium iodide (PI) (Sigma, St. Louis, Mo., USA), 0.1% trisodium citrate (Riedel-de Haen, Sigma-Aldrich Laborchemikalien GmbH, St. Louis, Mo., USA), 0.1% Triton X-100™ (Merck) and 0.1 mg/ml RNase (Sigma) (PI solution) to the samples. Subsequently, for at least 15 minutes, the cells were incubated on ice with the PI solution to stain the DNA before starting the analysis. The cells stained with the PI solution were analyzed by FACSCalibur™ (BD Biosciences, Mount View, Calif., USA). Data was analyzed with CellQuest™ Pro software.
(§2) Cell cycle distribution and apoptosis were analyzed by plating cells in flat bottom 6 well plates (Greiner Bio-One GmbH, Frickenhausen, Germany) at the density of 5,000 cells and allowed to attach for 24 h. Thereafter cytotoxic concentrations of 5×IC50 were added. The exposure time was 24 h and 48 h and for comparison the control group was included. At each time point total amount of adherent and floating cells were harvested in round-bottom FALCON tubes (BD, Franklin Lakes, N.J., USA). After centrifugation, cell pellets were resuspended in 1.0 ml propidium iodide (PI) solution (50 ug/ml PI, 0.1% sodium citrate 0.1% Triton X-100, 0.1 mg/ml ribonuclease A) or 10 ul Annexin V (cat#31490014, Immunotools) and left on ice for 30 minutes. Subsequently, samples were analyzed using FACSCalibur (BD Biosciences, Mount View, Calif., USA). For data analysis CELLQuest™ software was carried out, using gates on DNA histograms to estimate the amount of cells in sub-G1 phase (apoptotic cells).
A general note: A flow cytometer gives signals particle by particle.

For a further assay, the system named is SW1573. Described as above. The procedure:
as §1, §2

The next assay deals with DNMT1. The assay can be described thus: DNMT1 protein expression by Western Blotting. The following applies: for downregulation of DNMT1 protein expression: A549 and SW1573, 5-50 μM. Here is the method: The mechanism of cell cycle arrest was investigated by measuring cell cycle proteins expression using western blotting. The influence of RX-3117 on protein expression during different treatment conditions was analyzed by western blot. Cells were lysed using cell lysis buffer 1× (Cell Signaling, Danvers, Mass., USA) containing 4% protease inhibitor cocktail (Roche Diagnostics, Mannheim, Germany) on ice for 30 minutes and centrifuged for 10 minutes at 4° C. at 14,000 rpm. The protein containing supernatant was collected and the Bio-Rad assay was performed to determine protein amount as described in Lemos et al., Pharmacogenomics, 12(2):159-70 (2011). The following antibodies were used for protein expression: DNMT1 (Cell Signaling, 1:1000 #5032S), DNMT3A (Cell Signaling 1:1000 #2160S), DNMT3B (Abcam, 1; 1000), Chk2 (Cell Signaling 1:1000 #6334P), Chk1 (Cell Signaling 1:1000), p-CDC25C (Cell Signaling 1:1000 #4901S), Cdk1 (Cell Signaling 1:1000 #9112S), Cdk2 (Cell Signaling 1:1000 #2546S), wee1 (Cell Signaling 1:1000), 5139-γH2A.X (Cell Signaling, 1:1000), β actin (Sigma, 1:10,000), Caspase 9 (Cell Signaling, 1:1000), PARP (Roche 2003, 1:1000), p53 (Cell Signaling, 1:1000, #9282). The antibodies were diluted in 1:1 solution Rockland buffer (Rockland Inc., Philadelphia, Pa., USA) and PBS supplemented with 0.05% Tween® 20. The proteins were separated in 20% SDS-PAGE and transferred to a PVDF membrane. For fluorescent signal secondary antibodies goat anti-mouse InfraRedDye and goat anti-rabbit InfraRedDye were used. The proteins were detected by an Odyssey InfraRed Imager (Li-COR Bioscience, Lincoln, Nebr., USA).
DNMT1 protein expression was measured by Western Blotting after exposure to RX-3117 for 24 or 48 hr. DNMT1 RNA expression was measured by real-time PCR after 24 and 48 hr exposure to RX-3117. DNMT enzyme activity was measured in isolated nuclei after exposure 1 μM RX-3117 or 5 μM aza-CdR using a DNA methyltransferase assay kit provided by EpiGentek using the ability of a CpG dinding domain to bind to methylated DNA. In A549 cells the effect of 5 μM RX-3117 on overall methylation was measured with a specific antibody against 5-methyl-cytosine. Bands on Western blots were visualized using appropriate InfraRedDye using an Odyssey InfraRed imager.

With `Nc1ccn([C@@H]2C(F)=C(CO)[C@@H](O)[C@H]2O)c(=O)n1` [RX-3117, 4-amino-1-((1S,4R,5S)-2-fluoro-4,5-dihydroxy-3-hydroxymethyl-cyclopent-2-enyl)-1H-pyrimidin-2-one], the “accumulation of cells in the G1 phase” value with A549 (A549, 1 μM, 24 hour exposure) is “induced accumulation”; in the assay with SW1573 (SW1573, 1 μM, 24 hour exposure), “induced accumulation”. For the same compound, the “increased accumulation of cells in the G1 phase” value with A549 (A549, 1 μM, 24 hour exposure) was 20-40%; with SW1573 (SW1573, 1 μM, 24 hour exposure), 20-40%. For the same compound, the “apoptosis, Annexin V stained cells” value in the assay on A549 (A549, 5 μM, 24, 48, 72 and 96 hour exposure) is on record as “induced apoptosis”; in the assay on SW1573 (SW1573, 10 μM, 24, 48, 72 and 96 hour exposure), “induced apoptosis”. Besides, the “apoptosis, PI stained cells in the sub-G1 phase” value in the assay on A549 (A549, 5×IC50, 24 and 48 hour exposure) is on record as “induced apoptosis”; in the assay with SW1573 (SW1573, 5×IC50, 24 and 48 hour exposure), “induced apoptosis”. Further, the “accumulation of cells in the S-phase” value is “induced the accumulation” in the assay with A549 (A549, 5×IC50, 24 and 48 hours); “induced the accumulation” with SW1573 (SW1573, 5×IC50, 24 and 48 hours). In addition, the cell kill entry in the assay on A549 (A549, 24 hour exposure) is “No cell kill”; in the assay on A549 (A549, 48 hour exposure) it was 8%; in the assay with SW1573 (SW1573, 24 hour exposure), “No cell kill”; in the assay with SW1573 (SW1573, 48 hour exposure) it was 15%. Besides, in the assay with A549 (A549, 48 hour exposure), the “accumulation in S phase” value is recorded as 45%. Moreover, the DNMT1 protein expression entry in the assay on DNMT1 (A549, at higher dose (1-75 μM tested)) was “down regulates”; in the assay on DNMT1 (A2780, 1 μM, 24 hr), “protein down regulation was already observed”. For the same compound, the “downregulation of DNMT1 protein expression” value is 5-20% in the assay on DNMT1 (24 hour exposure) and above 90% with DNMT1 (48 hr).
